Laboratory results from the supplement of paper PMC8617591.

Assays:
[1] = tested on: Mycobacterium tuberculosis Erdman (autoluminescent); assay: FIC90 (Loewe) at 90% inhibition (log2); higher = more antagonistic
Description: (§1)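 DiaMOND equipotent two-drug combination dose responses against autoluminescent M. tuberculosis Erdman in 8 in vitro models. Read-out is OD600, or luminescence for the intracellular and dormancy models, normalised to untreated wells. Hill-fit Einf, AUC25 and GRinf are potency metrics; FIC50 and FIC90 are Loewe-additivity fractional inhibitory concentrations, given as log2 (negative = synergy). Replicates are averaged.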

[2] = tested on: Mycobacterium tuberculosis Erdman (autoluminescent); assay: FIC50 (Loewe) at 50% inhibition (log2); higher = more antagonistic
Description: as §1

[3] = tested on: Mycobacterium tuberculosis Erdman (autoluminescent); assay: Einf, fitted maximum growth inhibition of combination (fraction); higher = stronger maximal inhibition
Description: as §1

[4] = tested on: Mycobacterium tuberculosis Erdman (autoluminescent); assay: GRinf, maximum normalised growth rate inhibition (unitless (-1 to 1)); higher = less effect (negative = killing)
Description: as §1

[5] = tested on: Mycobacterium tuberculosis Erdman (autoluminescent); assay: AUC25, normalised area under dose response up to IC25 (fraction (0-1)); higher = more potent at low dose
Description: as §1

NNC(=O)c1ccncc1 [isoniazid] + O=[N+]([O-])c1cn2c(n1)OC[C@@H](OCc1ccc(OC(F)(F)F)cc1)C2 [pretomanid]
Conditions	AUC25, [5]	Einf, [3]	FIC50, [2]	FIC90, [1]	GRinf, [4]
in vitro model: acidic pH 5.7, time point: constant (~7 days, model-specific)	0.13	0.866	0.312	–	-0.747
in vitro model: acidic pH 5.7, time point: terminal (~4-5 doublings, model-specific)	0.0878	0.99	0.274	0.597	-0.432
in vitro model: intracellular J774, time point: constant = terminal	–	1	–	0.496	-0.631

Conditions	AUC25, [5]	Einf, [3]	FIC50, [2]	FIC90, [1]	GRinf, [4]
in vitro model: butyrate, time point: constant (~7 days, model-specific)	0.0655	0.945	0.776	0.672	-0.0657
in vitro model: butyrate, time point: terminal (~4-5 doublings, model-specific)	0.0383	0.973	0.602	0.403	-0.0769
in vitro model: cholesterol 0.05 mM, time point: constant (~7 days, model-specific)	0.122	0.755	0.145	–	-0.201
in vitro model: cholesterol 0.05 mM, time point: terminal (~4-5 doublings, model-specific)	0.0915	0.922	5.18	0.199	-0.242
in vitro model: cholesterol-high 0.2 mM, time point: constant (~7 days, model-specific)	0.0893	0.875	0.379	–	-0.127
in vitro model: cholesterol-high 0.2 mM, time point: terminal (~4-5 doublings, model-specific)	0.0482	0.982	0.467	0.413	-0.542
in vitro model: dormancy (butyrate + nitrate, low O2), time point: constant (~7 days, model-specific)	0.0671	0.909	0.185	0.145	0.115
in vitro model: dormancy (butyrate + nitrate, low O2), time point: terminal (~4-5 doublings, model-specific)	0.0588	0.983	0.103	0.303	-0.198
in vitro model: standard 7H9 glycerol, time point: constant = terminal	0.0602	0.928	0.303	0.248	0.0614
in vitro model: valerate, time point: constant (~7 days, model-specific)	0.102	0.884	0.537	2.18	-0.208
in vitro model: valerate, time point: terminal (~4-5 doublings, model-specific)	0.0772	0.938	0.495	0.477	0.00535

CC(=O)NC[C@H]1CN(c2ccc(N3CCOCC3)c(F)c2)C(=O)O1 [linezolid] + CO[C@H]1/C=C/O[C@@]2(C)Oc3c(C)c(O)c4c(O)c(c(/C=N/N5CCN(C6CCCC6)CC5)c(O)c4c3C2=O)NC(=O)/C(C)=C\C=C\[C@H](C)[C@H](O)[C@@H](C)[C@@H](O)[C@@H](C)[C@H](OC(C)=O)[C@@H]1C [rifapentine]
Conditions	AUC25, [5]	Einf, [3]	FIC50, [2]	FIC90, [1]	GRinf, [4]
in vitro model: acidic pH 5.7, time point: constant (~7 days, model-specific)	0.0817	0.89	0.435	–	-0.248
in vitro model: acidic pH 5.7, time point: terminal (~4-5 doublings, model-specific)	0.0632	0.979	0.277	0.184	-0.205
in vitro model: intracellular J774, time point: constant = terminal	–	0.948	–	-0.637	-0.209

Conditions	AUC25, [5]	Einf, [3]	FIC50, [2]	FIC90, [1]	GRinf, [4]
in vitro model: butyrate, time point: constant (~7 days, model-specific)	0.0729	0.876	0.227	-0.305	0.113
in vitro model: butyrate, time point: terminal (~4-5 doublings, model-specific)	0.0445	0.934	0.0572	-0.553	0.0794
in vitro model: cholesterol 0.05 mM, time point: constant (~7 days, model-specific)	0.156	0.718	-0.52	–	-0.0866
in vitro model: cholesterol 0.05 mM, time point: terminal (~4-5 doublings, model-specific)	0.107	0.929	-0.0542	0.274	-0.162
in vitro model: cholesterol-high 0.2 mM, time point: constant (~7 days, model-specific)	0.109	0.966	-0.254	-0.688	-0.499
in vitro model: cholesterol-high 0.2 mM, time point: terminal (~4-5 doublings, model-specific)	0.103	1	0.0666	0.0759	-0.762
in vitro model: dormancy (butyrate + nitrate, low O2), time point: constant (~7 days, model-specific)	0.0497	0.908	0.552	0.666	0.107
in vitro model: dormancy (butyrate + nitrate, low O2), time point: terminal (~4-5 doublings, model-specific)	0.0324	0.979	0.585	0.484	-0.13
in vitro model: standard 7H9 glycerol, time point: constant = terminal	0.0541	0.927	0.266	0.154	-0.0203
in vitro model: valerate, time point: constant (~7 days, model-specific)	0.064	0.849	0.063	–	0.119
in vitro model: valerate, time point: terminal (~4-5 doublings, model-specific)	0.0448	0.935	0.198	0.078	0.0691

CC(=O)NC[C@H]1CN(c2ccc(N3CCOCC3)c(F)c2)C(=O)O1 [linezolid] + CO[C@H]1/C=C/O[C@@]2(C)Oc3c(C)c(O)c4c(O)c(c(/C=N/N5CCN(C)CC5)c(O)c4c3C2=O)NC(=O)/C(C)=C\C=C\[C@H](C)[C@H](O)[C@@H](C)[C@@H](O)[C@@H](C)[C@H](OC(C)=O)[C@@H]1C [rifampicin]
Conditions	AUC25, [5]	Einf, [3]	FIC50, [2]	FIC90, [1]	GRinf, [4]
in vitro model: acidic pH 5.7, time point: constant (~7 days, model-specific)	0.0878	0.902	0.204	–	-0.289
in vitro model: acidic pH 5.7, time point: terminal (~4-5 doublings, model-specific)	0.0656	0.983	0.31	0.0747	-0.211
in vitro model: intracellular J774, time point: constant = terminal	–	0.955	–	-0.706	-0.24

Conditions	AUC25, [5]	Einf, [3]	FIC50, [2]	FIC90, [1]	GRinf, [4]
in vitro model: butyrate, time point: constant (~7 days, model-specific)	0.078	0.87	0.117	–	0.146
in vitro model: butyrate, time point: terminal (~4-5 doublings, model-specific)	0.0601	0.938	-0.0786	-0.707	0.11
in vitro model: cholesterol 0.05 mM, time point: constant (~7 days, model-specific)	0.154	0.725	-0.622	–	-0.00382
in vitro model: cholesterol 0.05 mM, time point: terminal (~4-5 doublings, model-specific)	0.13	0.935	-0.194	-0.403	-0.175
in vitro model: cholesterol-high 0.2 mM, time point: constant (~7 days, model-specific)	0.101	0.997	-0.0412	-0.846	-0.295
in vitro model: cholesterol-high 0.2 mM, time point: terminal (~4-5 doublings, model-specific)	0.0937	1	0.555	-0.0135	-0.687
in vitro model: dormancy (butyrate + nitrate, low O2), time point: constant (~7 days, model-specific)	0.0704	0.905	0.505	0.314	0.177
in vitro model: dormancy (butyrate + nitrate, low O2), time point: terminal (~4-5 doublings, model-specific)	0.0353	0.969	0.176	0.0537	-0.0276
in vitro model: standard 7H9 glycerol, time point: constant = terminal	0.0527	0.885	0.284	–	0.156
in vitro model: valerate, time point: constant (~7 days, model-specific)	0.0582	0.865	0.191	–	0.0036
in vitro model: valerate, time point: terminal (~4-5 doublings, model-specific)	0.0309	0.945	0.171	-0.411	0.00264
